Values quoted from earlier work, collected in patent publication US20080066744A1, “PROCESS FOR PRODUCING METERED DOSE INHALER FORMULATIONS” (Schering Corporation, priority 2002, published 2008).
Where two headings read alike, the source gives them in different places.

solubility (in acetone)	solubility (in chloroform)	solubility (in ethanol)	solubility (in isopropanol)	solubility (in methanol)	solubility (in tetrahydrofuran)	solubility (in water)	Compound
soluble	soluble	slightly soluble	slightly soluble	slightly soluble	freely soluble	practically insoluble	C[C@@H]1C[C@H]2[C@@H]3CCC4=CC(=O)C=C[C@]4(C)[C@@]3(Cl)[C@@H](O)C[C@]2(C)[C@@]1(OC(=O)c1ccco1)C(=O)CCl [Mometasone furoate, 9,21-Dichloro-11(beta), 17-dihydroxy-16(alpha)-methylpregna-1,4-diene-3,20-dione 17-(2 furoate)]
–	–	slightly soluble	–	–	–	soluble	(alpha) ^1[(tert-Butylamino)methyl]4-hydroxy-m-xylene-(alpha),(alpha)′-diol sulfate (2:1)(salt) [Albuterol sulfate]
